These results are taken from patent US8202893B2, “Cannabinergic lipid ligands” (University of Connecticut, priority 2004, dated 2012).

Where two headings read alike, the source gives them in different places.

Test [1] has as its target T1, FAAH (fatty acid amide hydrolase) (Rattus norvegicus, UniProt P97612).
T1 construct: Anandamide Amidase Activity in Rat Brain Microsomes; from tissue; host or cells: rat brain microsomes (by the cited procedure)
T1 sequence (P97612 1-579): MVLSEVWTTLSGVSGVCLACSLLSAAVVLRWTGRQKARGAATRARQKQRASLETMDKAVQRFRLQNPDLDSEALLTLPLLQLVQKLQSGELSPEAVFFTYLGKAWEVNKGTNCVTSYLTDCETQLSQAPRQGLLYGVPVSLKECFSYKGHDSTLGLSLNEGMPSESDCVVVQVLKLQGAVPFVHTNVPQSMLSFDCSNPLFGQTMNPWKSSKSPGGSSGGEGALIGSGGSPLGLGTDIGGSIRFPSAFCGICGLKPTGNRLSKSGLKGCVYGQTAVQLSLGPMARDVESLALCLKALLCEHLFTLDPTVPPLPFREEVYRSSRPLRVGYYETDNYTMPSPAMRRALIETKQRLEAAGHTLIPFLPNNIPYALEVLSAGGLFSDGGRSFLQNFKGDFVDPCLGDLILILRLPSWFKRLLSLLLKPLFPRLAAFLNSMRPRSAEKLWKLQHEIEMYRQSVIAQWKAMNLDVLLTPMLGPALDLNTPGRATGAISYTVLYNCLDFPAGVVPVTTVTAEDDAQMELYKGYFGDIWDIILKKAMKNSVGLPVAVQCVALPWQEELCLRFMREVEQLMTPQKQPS
The experiment in a line: FAAH screening: inhibition of anandamide metabolism to arachidonic acid. The format is biochemical. Particulars: 25 nmoles compound with 25 nmoles AEA, 75 μg enzyme, 250 μL, 15 min. The method, then: The FAAH (fatty acid amide hydrolase) enzyme preparation was obtained according to the procedure of Lang and Makriyannis et al High Performance Liquid Chromatographic Determination of Anandamide Amidase Activity in Rat Brain Microsomes, Analytical Biochemistry (238): 40-45, 1996.
All compound solutions were made to a concentration of 10 mM in DMSO. Three tests were performed on each compound: hydrolysis, to determine the stability of the compound in assay conditions without the enzyme present; metabolism, to determine the stability of the compound with the enzyme present; and inhibition of anandamide (native substrate) metabolism to arachidonic acid.
Again the reaction mixture was treated in the same manner as described above and the concentrations of AEA and AA were calculated using external standards. Percent inhibition was calculated using the following equation: % Inhib.=(AA15-AA0)i/(AA15-AA0)s where (AA15-AA0)c is the amount of arachidonic acid formed over 15 minutes from AEA with the inhibitor present and (AA15-AA0)s is the amount of arachidonic acid formed over 15 minutes from AEA when the inhibitor is not present. […] The reaction mixtures were treated as described above and the amount of AA formed was calculated. The software package GraphPad Prism was utilized to calculate IC50 and Ki. HPLC Conditions:
Chromatographic separation was achieved using an Ultrasphere ODS Pre-column (4.6×45 mm) from Beckman. Hardware consisted of a Waters Millennium HPLC system with a 20 μL injection loop. The mobile phase consisted of 8.5% o-phosphoric acid:acetonitrile (3:7), run isocratically at a rate of 1 mL/min and detection at 204 nm. The total run time was 8 minutes with AEA eluting at 2.2 minutes and AA at 6.0 minutes.

Test [2] addresses T2, CB1 cannabinoid receptor (Rattus norvegicus, UniProt P20272).
T2 construct: membranes were prepared from rat forebrain membranes; from tissue; host or cells: rat forebrain
The experiment in a line: CB1 receptor binding, [3H]CP-55,940 displacement. The following applies: rat forebrain membranes.

The target of test [3] is T3, CB2 receptor (Mus musculus, UniProt P47936).
T3 construct: membranes were prepared from frozen mouse spleen; from tissue; host or cells: mouse spleen
T3 sequence (P47936 whole entry): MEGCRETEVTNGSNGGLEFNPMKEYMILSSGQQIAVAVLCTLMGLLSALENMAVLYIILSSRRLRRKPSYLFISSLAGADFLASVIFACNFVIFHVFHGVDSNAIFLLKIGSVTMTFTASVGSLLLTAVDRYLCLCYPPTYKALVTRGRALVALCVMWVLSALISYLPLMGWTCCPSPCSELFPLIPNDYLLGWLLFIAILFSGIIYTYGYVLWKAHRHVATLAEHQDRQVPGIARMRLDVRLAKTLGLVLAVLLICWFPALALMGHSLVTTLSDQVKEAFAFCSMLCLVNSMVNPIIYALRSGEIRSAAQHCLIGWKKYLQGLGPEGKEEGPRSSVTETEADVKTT
The experiment in a line: CB2 receptor binding, [3H]CP-55,940 displacement. The following applies: mouse spleen membranes.

Setting [4] is: with PMSF (second value of cell), read-out: Ki CB1 (nM) (o/w PMSFQ).
The mark [5] stands for this setting: without PMSF (first value of cell), read-out: Ki CB1 (nM) (o/w PMSFQ).
Where [6] appears, read: with PMSF (second value of cell), read-out: Ki CB1 (nM) (o/w PMSF).
The mark [7] stands for this setting: without PMSF (first value of cell), read-out: Ki CB1 (nM) (o/w PMSF).

T2 sequence (P20272 whole entry): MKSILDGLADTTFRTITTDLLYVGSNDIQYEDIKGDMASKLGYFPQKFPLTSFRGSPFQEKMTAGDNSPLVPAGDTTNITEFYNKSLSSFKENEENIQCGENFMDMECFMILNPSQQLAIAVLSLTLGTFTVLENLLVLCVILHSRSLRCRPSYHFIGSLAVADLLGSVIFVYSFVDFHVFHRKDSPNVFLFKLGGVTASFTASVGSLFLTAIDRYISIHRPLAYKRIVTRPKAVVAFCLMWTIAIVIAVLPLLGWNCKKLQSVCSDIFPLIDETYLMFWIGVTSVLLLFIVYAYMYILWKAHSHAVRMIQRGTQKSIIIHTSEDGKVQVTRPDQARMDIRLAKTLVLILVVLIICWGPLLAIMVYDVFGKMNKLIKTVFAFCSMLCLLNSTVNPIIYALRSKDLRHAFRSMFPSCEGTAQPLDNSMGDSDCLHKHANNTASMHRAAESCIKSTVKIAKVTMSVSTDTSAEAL

On to `O=C(CCC/C=C\C/C=C\C/C=C\C/C=C\CCCCc1ccccc1)NCC1CC1` [Compound A1], for which the “FAAH % Inhibition” value in test [1] is 23%. The results for the Ki in test [2] (setting [4]), in test [2] (setting [5]) and in test [3] were 153 nM, 94.6 nM and 177 nM, respectively.

Turning to `O=C(CCC/C=C\C/C=C\C/C=C\C/C=C\CCc1ccccc1)NCC1CC1` [Compound A2], in test [1], the “FAAH % Inhibition” value is listed as 32%. Also, the values for the Ki in test [2] (setting [4]), in test [2] (setting [5]) and in test [3] were 129 nM, 729 nM and 171 nM, respectively.

As for `O=C(CCC/C=C\C/C=C\C/C=C\C/C=C\CCc1ccccc1)Nc1ccc(O)cc1` [Compound A3], in test [1], the “FAAH % Inhibition” value came to 34%. Further, the values for the Ki in test [2] (setting [4]), in test [2] (setting [5]) and in test [3] were 58.6 nM, 183 nM and 83.3 nM, respectively.

For the compound `O=C(CCC/C=C\C/C=C\C/C=C\C/C=C\CCc1ccccc1)Nc1nccs1` [Compound A4], the “FAAH % Inhibition” value in test [1] is listed as 58%. The results for the Ki in test [2] (setting [4]), in test [2] (setting [5]) and in test [3] were 84.3 nM, 1180 nM and 1230 nM, respectively.

`[N-]=[N+]=NCCCC/C=C\C/C=C\C/C=C\C/C=C\CCCC(=O)NCC1CC1` [Compound A6]: the “FAAH % Inhibition” value in test [1] amounted to 11%. In addition, the Ki came to 114 nM in test [2] (setting [4]), 195 nM in test [2] (setting [5]) and 426 nM in test [3].

With `COc1cc(CNC(=O)CCC/C=C\C/C=C\C/C=C\C/C=C\CCCCN=[N+]=[N-])ccc1O` [Compound A7], the “FAAH % Inhibition” value in test [1] turned out to be 46%. In addition, the Ki was determined as 80.5 nM in test [2] (setting [4]), 165 nM in test [2] (setting [5]) and 302 nM in test [3].

As to `COc1cc(CNC(=O)CCC/C=C\C/C=C\C/C=C\C/C=C\CCCCN=C=S)ccc1O` [Compound A12], the “FAAH % Inhibition” value in test [1] worked out at 39%. Further, the Ki in test [2] (setting [4]) came out at 136 nM; in test [2] (setting [5]) it was 193 nM; in test [3] it was 553 nM.

Take `O=C(CCC/C=C\C/C=C\C/C=C\C/C=C\CCCCCBr)NC1CC1` [Compound A18]: the “FAAH % Inhibition” value in test [1] came to 72%. In addition, the Ki amounted to 0.16 nM in test [2] (setting [4]), 25.1 nM in test [2] (setting [5]) and 12.3 nM in test [3].

With `CCCCCC=CCC=CCC=CCC=CCCCCOC(=O)NCC(C)O` (stereo not drawn) [Compound B3], the “FAAH % Inhibition” value in test [1] came out at 10%. The results for the Ki in test [2] (setting [6]), in test [2] (setting [7]) and in test [3] were 396 nM, 526 nM and 597 nM, respectively.

`CCCCC/C=C\C/C=C\C/C=C\C/C=C\CCCCNC(=O)NC[C@H](C)O` [Compound B12]: the “FAAH % Inhibition” value in test [1] was 17.2%. Besides, the Ki in test [2] (setting [6]) came out at 126 nM; in test [2] (setting [7]) it was 380 nM; in test [3], 242 nM.

As for `CCCCC/C=C\C/C=C\CCCCCCCCOC(=O)NC[C@H](C)O` [Compound B14], in test [1], the “FAAH % Inhibition” value came out at 1.20%. Further, the Ki in test [2] (setting [6]) is 405 nM; in test [2] (setting [7]), 1350 nM; in test [3], 2250 nM.

On to `CC/C=C\C/C=C\C/C=C\CCCCCCCCOC(=O)NC[C@H](C)O` [Compound B15], for which, in test [1], the “FAAH % Inhibition” value turned out to be 6.96%. In addition, the Ki in test [2] (setting [6]) is 481 nM; in test [2] (setting [7]), 622 nM; in test [3], 422 nM.
